The values below come from ChEMBL document CHEMBL1799910, “Optimization of 1,2,3,4-tetrahydroacridin-9(10H)-ones as antimalarials utilizing structure-activity and structure-property relationships” (J Med Chem, 2011).

In brackets after ≈: the same amount, converted by molar mass.

In data set [1] the test system is Plasmodium falciparum. The data set can be described thus: Antimalarial activity against chloroquine and pyrimethamine-resistant Plasmodium falciparum W2 infected in human A positive erythrocytes after 72 hrs by SYBR Green I assay. Format: functional, organism-based. Conditions: W2, 72 h.
A short description of data set [2]: Aqueous solubility of compound at pH 7.4 by HPLC analysis. As to conditions: buffer.
The test system of data set [3] is Plasmodium falciparum. The data set can be described thus: Resistance index, ratio of EC50 for chloroquine, mefloquine, pyrimethamine and atovaquone-resistant Plasmodium falciparum TM90-C2B to EC50 for chloroquine and pyrimethamine-resistant Plasmodium falciparum W2. In kind it is functional.
Another data set relates to J774. Briefly: Cytotoxicity against mouse J774 cells after 72 hrs by Cell titer 96 aqueous one solution cell proliferation assay. In kind it is cell-based. As to conditions: J774, 72 h.
For data set [4], the system named is Plasmodium falciparum. The data set can be described thus: Antimalarial activity against chloroquine, mefloquine, pyrimethamine and atovaquone-resistant Plasmodium falciparum TM90-C2B infected in human A positive erythrocytes after 72 hrs by SYBR Green I assay. In kind it is functional, organism-based.
The nature of data set [5]: Partition coefficient, log D of the compound at pH 7.4 by HPLC analysis. Conditions: octanol/water.
Data set [6] can be described thus: Permeability of the compound by PAMPA method at pH 7.4. In kind it is ADME. Conditions: read-out: permeability. (In general: In PAMPA a lipid-coated filter parts donor from acceptor wells.)
Data set [7] is described as follows: Cytotoxicity index, ratio of EC50 for mouse J774 cells to EC50 for chloroquine, mefloquine, pyrimethamine and atovaquone-resistant Plasmodium falciparum TM90-C2B. Format: cell-based. As to conditions: read-out: Ratio EC50.

Usually EC50 stands for the concentration that produces a half-maximal response. A low value points to higher potency in that assay. What is called solubility is the concentration that dissolves in the medium under given conditions. Higher therefore signals much dissolved substance. As a reminder, the logD is lipophilicity at a set pH, counting ionised and neutral species. Regarding `CN(C)c1ccc(-c2ccc3c(=O)c4c([nH]c3c2)CCCC4)cc1`, the EC50 with Plasmodium falciparum [1] was 99.2 nM; in the data set on J774, more than 10000 nM; in the data set on Plasmodium falciparum [4], 161 nM. Besides, the concentration in solution in data set [2] (solubility) came to 11 µM (≈ 3.5 µg/mL). Moreover, the “Ratio EC50” value in the data set with Plasmodium falciparum [3] turned out to be 1.62. The molecule further showed a logD in data set [5] of 1.3. In addition, in data set [6], the Papp was determined as 199 ×10⁻⁶ cm/s. In addition, the selectivity ratio in data set [7] is not below 100.

As for `O=c1c2c([nH]c3ccc(-c4ccc(OC(F)(F)F)cc4)cc13)CCSC2`, the half-maximal effective concentration (EC50) in the data set on Plasmodium falciparum [1] was 95.1 nM; with J774, more than 1000 nM; in the data set with Plasmodium falciparum [4] it was 58 nM. In addition, in data set [2], the concentration in solution (solubility) came to 1 µM (≈ 0.377 µg/mL). In addition, the “Ratio EC50” value in the data set with Plasmodium falciparum [3] came to 0.61. This molecule registered a pH-dependent lipophilicity (logD) in data set [5] of 2.5. For the same molecule, the Papp in data set [6] was less than 1 ×10⁻⁶ cm/s. Also, the selectivity ratio in data set [7] is not below 100.

For the molecule `COc1cccc2[nH]c3c(c(=O)c12)CCC(C)(C)C3`, the results for the EC50 in the data set with Plasmodium falciparum [1], in the data set on J774 and in the data set on Plasmodium falciparum [4] were more than 9720 nM, more than 20000 nM and 4100 nM, respectively. Moreover, the solubility in data set [2] came to 64 µM (≈ 16.5 µg/mL). Also, in the data set with Plasmodium falciparum [3], the “Ratio EC50” value is less than 0.42. This molecule also came in with a logD in data set [5] of 1.7. Moreover, the Papp in data set [6] worked out at 43 ×10⁻⁶ cm/s. Further, the selectivity ratio in data set [7] was not below 100.

With `O=c1c2c([nH]c3c(Cl)cccc13)CCCC2`, the EC50 in the data set on Plasmodium falciparum [1] is 1350 nM; in the data set on J774, more than 20000 nM; in the data set with Plasmodium falciparum [4], more than 9000 nM. The molecule further displayed a solubility in data set [2] of 107 µM (≈ 25 µg/mL). In the data set with Plasmodium falciparum [3], the “Ratio EC50” value was more than 7.9. Moreover, the logD in data set [5] is 2.2. Also, the Papp in data set [6] amounted to 107 ×10⁻⁶ cm/s. Further, the selectivity ratio in data set [7] was not below 100.

Turning to `Cc1cccc2c(=O)c3c([nH]c12)CCC(C)(C)C3`, the figures for the EC50 with Plasmodium falciparum [1], in the data set with J774 and in the data set with Plasmodium falciparum [4] were 791 nM, more than 40000 nM and 531 nM, respectively. The solubility in data set [2] was 38 µM (≈ 9.17 µg/mL). Also, the “Ratio EC50” value with Plasmodium falciparum [3] is 0.67. This molecule registered a logD in data set [5] of 2.3. The Papp in data set [6] was found to be 90 ×10⁻⁶ cm/s. Moreover, the selectivity ratio in data set [7] was not below 100.

Take `CC1(C)CCc2c([nH]c3ccccc3c2=O)C1`: the figures for the EC50 in the data set with Plasmodium falciparum [1], in the data set with J774 and with Plasmodium falciparum [4] were 1870 nM, more than 40000 nM and 335 nM, respectively. In data set [2], this molecule yielded a solubility of 64 µM (≈ 14.5 µg/mL). In addition, the “Ratio EC50” value in the data set with Plasmodium falciparum [3] was found to be 0.18. For the same molecule, in data set [5], the logD amounted to 1.9. The Papp in data set [6] worked out at 43 ×10⁻⁶ cm/s. Besides, the selectivity ratio in data set [7] is not below 100.

With `CC1(C)CCc2[nH]c3c(Cl)cccc3c(=O)c2C1`, the EC50 is 4670 nM with Plasmodium falciparum [1], more than 20000 nM in the data set on J774 and 4730 nM with Plasmodium falciparum [4]. The concentration in solution in data set [2] (solubility) was 62 µM (≈ 16.2 µg/mL). Also, the “Ratio EC50” value in the data set with Plasmodium falciparum [3] worked out at 1.01. For the same molecule, the logD in data set [5] was 2.9. Moreover, the Papp in data set [6] was 427 ×10⁻⁶ cm/s. The selectivity ratio in data set [7] was not below 100.

For `CC1(C)CCc2[nH]c3cc(Cl)ccc3c(=O)c2C1`, the EC50 was 240 nM with Plasmodium falciparum [1], more than 40000 nM with J774 and 829 nM in the data set on Plasmodium falciparum [4]. In data set [2], this molecule came in with a solubility of 1 µM (≈ 0.262 µg/mL). Also, the “Ratio EC50” value in the data set on Plasmodium falciparum [3] worked out at 3.45. Besides, the logD in data set [5] turned out to be 2.8. Besides, the Papp in data set [6] turned out to be 62 ×10⁻⁶ cm/s. In data set [7], the selectivity ratio is not below 100.

As to `O=c1c2c([nH]c3ccc(-c4cccc(Oc5ccc(F)cc5)c4)cc13)CCSC2`, the values for the EC50 in the data set with Plasmodium falciparum [1], in the data set with J774 and with Plasmodium falciparum [4] were 40.9 nM, more than 100 nM and 143 nM, respectively. The same molecule yielded a solubility in data set [2] of 0.3 µM (≈ 0.121 µg/mL). Further, the “Ratio EC50” value in the data set on Plasmodium falciparum [3] amounted to 3.5. The molecule also had a logD in data set [5] of 2.8. Besides, the Papp in data set [6] turned out to be 2 ×10⁻⁶ cm/s. For the same molecule, the selectivity ratio in data set [7] is not below 100.

Take `COc1cccc2c(=O)c3c([nH]c12)CCCC3`: the EC50 in the data set with Plasmodium falciparum [1] was 4770 nM; in the data set on J774 it was more than 20000 nM; in the data set on Plasmodium falciparum [4], 4560 nM. Further, the concentration in solution in data set [2] (solubility) was 99 µM (≈ 22.7 µg/mL). Further, the “Ratio EC50” value in the data set on Plasmodium falciparum [3] was found to be 0.95. In addition, the logD in data set [5] came out at 1.7. In addition, the Papp in data set [6] came to 16 ×10⁻⁶ cm/s. The selectivity ratio in data set [7] is not below 100.

Take `O=c1c2c([nH]c3cccc(Cl)c13)CCCC2`: the EC50 with Plasmodium falciparum [1] is 368 nM; in the data set on J774, more than 5000 nM; in the data set with Plasmodium falciparum [4] it was 447 nM. In data set [2], this molecule registered a solubility of 99 µM (≈ 23.1 µg/mL). In addition, the “Ratio EC50” value in the data set on Plasmodium falciparum [3] is 1.22. In data set [5], this molecule showed a logD of 1.8. In addition, the Papp in data set [6] was found to be 47 ×10⁻⁶ cm/s. In data set [7], the selectivity ratio was not below 100.

Consider `O=c1c2c([nH]c3ccc(-c4cccnc4)cc13)CCSC2`, for which the EC50 with Plasmodium falciparum [1] was 7620 nM; with J774, more than 20000 nM; in the data set on Plasmodium falciparum [4] it was 8490 nM. This molecule displayed a solubility in data set [2] of 37 µM (≈ 10.9 µg/mL). In addition, the “Ratio EC50” value in the data set on Plasmodium falciparum [3] worked out at 1.11. The molecule further showed a logD in data set [5] of 0.8. The Papp in data set [6] is 3 ×10⁻⁶ cm/s. Besides, the selectivity ratio in data set [7] was not below 100.

With `CC(C)(C)c1ccc2[nH]c3c(c(=O)c2c1)CCCC3`, the EC50 in the data set with Plasmodium falciparum [1] was 78.7 nM; in the data set with J774 it was more than 5000 nM; in the data set with Plasmodium falciparum [4], 325 nM. In data set [2], this molecule yielded a solubility of 5 µM (≈ 1.28 µg/mL). Further, in the data set on Plasmodium falciparum [3], the “Ratio EC50” value is 4.13. In data set [5], this molecule gave a logD of 2.8. The Papp in data set [6] came out at 165 ×10⁻⁶ cm/s. Further, the selectivity ratio in data set [7] was not below 100.

As for `CC1(C)CCc2c([nH]c3cccc(Cl)c3c2=O)C1`, the figures for the EC50 in the data set on Plasmodium falciparum [1], with J774 and with Plasmodium falciparum [4] were 2990 nM, more than 5000 nM and 5330 nM, respectively. The solubility in data set [2] was found to be 6 µM (≈ 1.57 µg/mL). Further, the “Ratio EC50” value with Plasmodium falciparum [3] is 1.78. In addition, the logD in data set [5] was 2.5. Further, the Papp in data set [6] was determined as 103 ×10⁻⁶ cm/s. Also, the selectivity ratio in data set [7] was not below 100.

For the molecule `COc1ccc2c(=O)c3c([nH]c2c1)CCC3`, the figures for the EC50 with Plasmodium falciparum [1], in the data set with J774 and with Plasmodium falciparum [4] were 1130 nM, more than 40000 nM and 610 nM, respectively. This molecule showed a solubility in data set [2] of 91 µM (≈ 19.6 µg/mL). Moreover, in the data set with Plasmodium falciparum [3], the “Ratio EC50” value came to 0.54. The same molecule displayed a logD in data set [5] of 1.5. Also, the Papp in data set [6] was 11 ×10⁻⁶ cm/s. In addition, in data set [7], the selectivity ratio was not below 100.

On to `O=c1c2c([nH]c3ccc([N+](=O)[O-])cc13)CCCC2`, for which the values for the EC50 in the data set on Plasmodium falciparum [1], in the data set with J774 and in the data set on Plasmodium falciparum [4] were 3160 nM, more than 5000 nM and 379 nM, respectively. This molecule yielded a solubility in data set [2] of 8 µM (≈ 1.95 µg/mL). Besides, the “Ratio EC50” value in the data set on Plasmodium falciparum [3] is 0.12. The same molecule displayed a logD in data set [5] of 1.5. Also, the Papp in data set [6] worked out at 6.9 ×10⁻⁶ cm/s. Besides, the selectivity ratio in data set [7] is not below 100.

For `COc1cc2[nH]c3c(c(=O)c2cc1OC)CCCC3`, the EC50 with Plasmodium falciparum [1] is 8970 nM; in the data set on J774, more than 20000 nM; in the data set with Plasmodium falciparum [4], 3390 nM. In data set [2], this molecule returned a solubility of 88 µM (≈ 22.8 µg/mL). Besides, the “Ratio EC50” value in the data set on Plasmodium falciparum [3] was 0.38. In data set [5], the log distribution coefficient (logD) amounted to 1.3. Moreover, the Papp in data set [6] is 1 ×10⁻⁶ cm/s. Besides, the selectivity ratio in data set [7] was not below 100.

With `Cc1ccc2[nH]c3c(c(=O)c2c1)CCCC3`, the EC50 in the data set on Plasmodium falciparum [1] was 449 nM; with J774, more than 40000 nM; in the data set on Plasmodium falciparum [4], 656 nM. For the same molecule, the solubility in data set [2] is 44 µM (≈ 9.38 µg/mL). Further, the “Ratio EC50” value in the data set on Plasmodium falciparum [3] worked out at 1.46. The logD in data set [5] was determined as 1.7. The Papp in data set [6] came to 19 ×10⁻⁶ cm/s. Further, the selectivity ratio in data set [7] is not below 100.

As to `O=c1c2c([nH]c3ccc(-c4ccc(COc5ccc(OC(F)(F)F)cc5)cc4)cc13)CCSC2`, the EC50 is 129 nM in the data set with Plasmodium falciparum [1], more than 10000 nM in the data set on J774 and 2840 nM in the data set on Plasmodium falciparum [4]. In data set [2], this molecule returned a solubility of 12 µM (≈ 5.8 µg/mL). Moreover, the “Ratio EC50” value in the data set with Plasmodium falciparum [3] amounted to 22. The molecule also came in with a logD in data set [5] of 3.5. In data set [6], the Papp was 3 ×10⁻⁶ cm/s. In addition, the selectivity ratio in data set [7] was not below 100.
